# Reference: US20170202939A1, “PERSONALIZED CANCER VACCINES AND METHODS THEREFOR” (Washington University, priority 2014, published 2017)
# No end group written: not given here.
# System: DM6 cells expressing TMC
# Assay: processing and presentation: T cells co-cultured with DM6 expressing tandem mini-gene constructs (51Cr release, IFN-γ ELISA)
# Assay type: cell-based, human
# Conditions: for neoantigen processing and presentation (cytotoxic activity, IFN-γ production): DM6 expressing AAS-/MUT-encoding mini-gene construct
# Text: As illustrated in FIG. 9 and FIG. 10, to determine whether vaccine-induced T cells could recognize naturally processed antigen, the melanoma tumor cell line DM6 was transduced with a multi-mini-gene construct encoding mutated (MUT) or wild-type (WT) sequences of peptides incorporated into a vaccine. FIG. 9 illustrates that each minigene consists of 21 aa encoding either the MUT or WT sequences. A scheme depicting minigene construct characteristics and a representative MUT 21-mer aa sequence encoded in construct is shown. Vaccine-induced T cells, specific for AKAP13 containing the Q285K mutation, were incubated with MUT or WT expressing DM6 cells, supernatants collected after 24 h of incubation, and IFN-γ produced by T cells was measured in supernatants by ELISA (FIG. 10).
# Tandem mini-gene constructs (TMC) were used for evaluating processing and presentation of neoantigens. All constructs were 19-21-mers encoding AAS- or WT-sequences for peptides included in vaccine. No spacers are present between sequences. A ubiquitination signal and two mini-gene controls (encoding G280 and WNV SVG9 peptides) were included to monitor processing and presentation. The amino acid sequence of a 21-mer encoding TMEM48 F169L is shown with mutated amino acid residue underlined. TMC also encoded the West Nile Virus (WNV) SVG9 (McMurtrey, C. P., et al., P.N.A.S., 105, 2981-2986, 2008) and melanoma G280 (Cox, A. L., et al., Science, 264, 716-719, 1994) antigenic determinants as controls (Table 6).
# TMC were cloned into pMX (GFP+), expressed as retrovirus and used to transfect the HLA-A*02:01+ melanoma lines DM6 (Darrow, T. L., et al., J. Immunol., 142, 3329-3335, 1989) or A375 (obtained from ATCC and mycoplasma free). TMC expressing cells were selected by sorting for GFP+ cells expressing cell surface HLA-A*02:01/SVG9 peptide complexes as detected by a T cell receptor mimic (TCRm) monoclonal antibody (Kim S., et al., J. Immunol., 184, 4423-4430, 2010). AAS- and WT-TMC reactivity with the HLA-A*02:01/SVG9 peptide complex specific TCRm monoclonal antibody validated expression of the mini-gene constructs. […] Results are shown for parental DM6 (shaded histogram) and DM6 cells expressing AAS—(dashed line) and WT (solid line) TMC constructs. A representative experiment of four performed is shown.
# DM6 cells expressing TMC were labeled with 25μCi ^51Cr for 1 h, washed and tested as targets in a standard 4 h assay using neoantigen-specific T cells as effectors (Carreno B. M. et al. 2012 J Immunol 188, 5839). DM6 cells expressing AAS—(closed rectangles) or WT—(closed circles) TMC were co-cultured with neoantigen-specific T cells at a 1:1 ratio, supernatants harvest at 16 h and IFN-γ production evaluated by ELISA as described (Carreno, B. M., et al., J Immunol., 188, 58395849, […]; plots in FIG. 38). Open triangles represent lysis obtained with parental DM6 cells. Percent specific lysis of triplicates (mean+standard deviation) is shown for each E:T ratio; spontaneous lysis was <5%. A representative experiment of two independent evaluations is shown.
# FIG. 39 illustrates that neoantigen-specific CD8 T cells were co-cultured with DM6 expressing AAS- or WT-encoding TMC for 20 h and IFN-γ production determined by ELISA. T cells cultured with parental DM6 cells are indicated as media. Mean values+/−SD of duplicates are shown. Results are representative of 2 experiments performed. […] None of the neoantigen-specific T cells recognized WT-encoding TMC (FIGS. 38 and 39). Based on these findings and the immune monitoring results (FIG. 31), the nine neoantigens identified in this study fall into three distinct antigenic determinant categories (Sercarz, E. E., et al., Annu. Rev. Imunol., 11, 729-766, 1993; Assarsson, E., et al., J. Immunol., 178, 7890-7901, 2007).
Sequence,Recognition of processed antigen,"neoantigen processing and presentation (cytotoxic activity, IFN-γ production)","neoantigen processing and presentation (cytotoxic activity, IFN-γ production) (listed as AKAP13 (Q285K))","neoantigen processing and presentation (cytotoxic activity, IFN-γ production) (listed as AKAP13 Q285K)"
CLNEYHLFL,Yes,processed and presented,–,–
IILVAVPHV,–,processed and presented,–,–
KLMNIQQKL,Yes,–,"processed, presented and recognized by vaccine-induced T cells",processed and presented
MLGEQLFPL,Yes,processed and presented,–,–
QLSCISTYV,No,not processed and presented,–,–
